Patent publication US8735402B2, “Cycloalkyloxycarboxylic acid derivatives” (Sanofi, priority 2011, dated 2014)

Biological target: T1, human Edg-1 receptor (Homo sapiens, UniProt P21453)
T1 construct: FLAG (N); expressed in transfected cells; membrane preparation
Experiment: GTP-γ-S assay using human Edg-1 receptors (scintillation proximity assay, CHO Flp-In cell membrane preparation)
Assay type: biochemical
Details: test compound 10 μM; 10 μM S1P regarded as 100% activation; background-corrected; triplicate
Text: Determination of the Pharmacological Activity A) GTP-γ-S Assay Using Human Edg-1 Receptors In order to determine the Edg-1 receptor activation by the compounds of the invention, a GTP-γ-S ((GTP-γ-S=guanosine 5′-[thio]triphosphate) assay for G-protein coupled receptor binding based on the scintillation proximity assay principle was used, employing a cell membrane preparation from a CHO Flp-In cell line which constitutively overexpresses the human Edg-1 receptor. The Flp-In™ expression system (Invitrogen/Life Technologies™ cat. no. K6010-01) allows the generation of stable mammalian cell lines into which the gene of interest has been integrated through […] at a specific genomic location called Flp Recombination Target (FRT) site by means of a Flp recombinase encoded by the pOG44 expression plasmid. […] The EDG-1 membrane preparation obtained in (b) was initially used in a commercial scintillation proximity assay kit (Amersham/GE Healthcare, cat. no. RPNQ0210) to quantify the receptor activation. Here, the ligand-induced binding of ^35S-radiolabeled GTP-γ-S to the receptor-containing membrane causes the emission of light in the scintillation beads attached to the membrane preparation, which allows quantification of the in vitro activity of the Edg-1-agonistic compound. […]

T1 sequence (P21453 whole entry): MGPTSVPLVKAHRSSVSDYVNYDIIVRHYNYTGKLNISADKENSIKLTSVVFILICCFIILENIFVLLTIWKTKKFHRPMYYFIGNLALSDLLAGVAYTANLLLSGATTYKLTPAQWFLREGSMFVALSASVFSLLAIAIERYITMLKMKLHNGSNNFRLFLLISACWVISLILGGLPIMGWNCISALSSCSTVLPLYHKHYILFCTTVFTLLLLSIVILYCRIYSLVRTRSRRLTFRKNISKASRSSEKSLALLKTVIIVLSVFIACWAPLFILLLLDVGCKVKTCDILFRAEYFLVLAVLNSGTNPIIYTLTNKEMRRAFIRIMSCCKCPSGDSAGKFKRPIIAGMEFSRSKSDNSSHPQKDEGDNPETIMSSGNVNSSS

SMILES	Edg-1 receptor activation by example compounds at 10 μM in percent of the activation by 10 μM S1P (% activation)
Cc1cc(-c2nc3cnc(Oc4cccc(Cl)c4)nc3o2)cc(C)c1OC1CC(C(=O)O)C1 (centres unmarked) [Example 1, 3-{4-[5-(3-Chlorophenoxy)oxazolo[5,4-d]pyrimidin-2-yl]-2,6-dimethylphenoxy}cyclobutanecarboxylic acid]	116%
Cc1cc(-c2nc3cnc(Oc4ccccc4F)nc3o2)cc(C)c1OC1CC(C(=O)O)C1 (centres unmarked) [Example 2, 3-{4-[5-(2-Fluorophenoxy)oxazolo[5,4-d]pyrimidin-2-yl]-2,6-dimethylphenoxy}cyclobutanecarboxylic acid]	83%
